How the values were obtained:
[1] = test system: MHC class II (IA-IE) in P388D1 cells; experiment: in vitro induction of MHC class II (IA-IE) in P388D1 cells (FACS); assay type: cell-based, murine
Experimental: (§1) Cell Culture and Compound Treatment for MHC II Induction
(§2) Human and murine tumor cell lines were obtained from the Shanghai Institutes for Biological Sciences (SIBS) or American Type Culture Collection (ATCC) and maintained in a humidified 5% CO2 incubator at 37° C. All of the human cell lines were derived from human B cell lymphomas: OCI-Ly19, OCI-Ly7, OCI-Ly18, RL, SU-DHL6, and MD901. The murine tumor cell lines were of varied origin: CT-26 (colon carcinoma), RENCA (renal cell carcinoma), P388D1 (lymphoblast of monocytes and macrophages), MPC-11 (plasmacytoma, myeloma), L5178 (thymic lymphoma), and J588 (plasmacytoma, myeloma).
(§3) On Day 0, T25 flasks were seeded at the following cell densities:
(§4) On Day 1, cells were treated with I-1 compound diluted in DMSO/PBS (final concentration of DMSO in the media was 0.19%). The cells were treated with I-1 compound for 72 hours. The adherent cells were dissociated with 1 mL/T25 flask of Cell Dissociation buffer (GIBCO) at 37° C. Four mL of culture media was added to each flask, samples were aliquoted FACS analysis. For suspension cells, samples were aliquoted into 50 mL conical tubes for FACS analysis.
FACS Detection of MHC II on Human and Murine Cells (IA/IE on Murine Cells)
Cells were counted to determine cell number and viability with Vi-cell (Beckman). After washing once with 10 mL cold FACS staining buffer (PBS+0.2% BSA), liquid was aspirated and the cells were resuspended in enough cold FACS staining buffer to reach a final cell density of ˜1×10^7 viable cells/mL. 50 μL/well (˜500 k/well) of cells were added to a 96-well u-bottomed plate and the cells were stained as follows, according to manufacturer's instructions: • Sample 1: Unstained • Sample 2: stained with anti MHC II antibody (PE anti-human HLA-DR, Clone: G46-6, Becton Dickinson; PE anti-mouse I-A/I-E, Clone: M5/114.15.2, Becton Dickinson) • Sample 3: stained with isotype control
(§5) Cells were incubated for 1 hour at 4° C., protected from light. […] Samples were analyzed immediately using FACS machine. The data were analyzed with BD Accuri C6 software and FlowJo_V10.

[2] = target: HDAC1 (Homo sapiens (Human), UniProt Q13547); experiment: non-trypsin coupled in-vitro HDAC enzymatic endpoint assay (Caliper LabChip EZ-Reader); assay type: biochemical; settings: 3 hrs preincubation, Substrate A 2 μM
Experimental: (§7) In some experiments, the following non-trypsin coupled in-vitro HDAC enzymatic endpoint assay was used to assay the compounds described herein. Below is a standardized protocol for running HDAC selectivity panel on Caliper LabChip EZ-Reader Instrument.
(§8) Substrate A was prepared as 2 mM in DMSO. Its final concentration in the assay for HDACs 1,2,3,6 is 2 μM.
(§9) LBH was used as quench inhibitor to stop the reaction at the end point.
(§10) The protocol was carried out as follows: • 1. Caliper LabChip and 1 μM Marker (peptide substrate in separation buffer) were prepared for instrument run. • 2. Warm up Caliper HAB buffer to room temperature • 3. […] Add 10 μl 3× solution acetylated substrate to initiate the reaction for 50 minutes. • 5. […] Mix plate • 7. Read plate on EZ Reader instrument. Separate substrate and product peaks by capillary electrophoresis and read fluorescence from both substrate and product. • 8. Run parameters were as follows:

[3] = target: HDAC2 (Homo sapiens (Human), UniProt Q92769); experiment: as above; assay type: biochemical; settings: 3 hrs preincubation, Substrate A 2 μM
Experimental: as §7, §8, §9, §10

[4] = target: HDAC3 (Homo sapiens (Human), UniProt O15379); experiment: as above; assay type: biochemical; settings: 3 hrs preincubation, Substrate A 2 μM
Experimental: as §7, §8, §9, §10

[5] = test system: MHC Class II expression across multiple cell lines; experiment: FACS detection of MHC II on human and murine tumor cell lines; assay type: cell-based; settings: 72 hours treatment (FIG. 1)
Experimental: as §1, §2, §3
as §4, with “For suspension cells, samples were aliquoted into 50 mL conical tubes for FACS analysis.” left out
(§6) Cells were counted to determine cell number and viability with Vi-cell (Beckman). […]
as §5

[6] = test system: MHC class II (IA-IE) in RENCA cells; experiment: in vitro induction of MHC class II (IA-IE) in RENCA cells (FACS); assay type: cell-based, murine
Experimental: as §1, §2, §3
as §4, with “For suspension cells, samples were aliquoted into 50 mL conical tubes for FACS analysis.” left out
as §6, §5

[7] = test system: P388D1 cells and RENCA cells; experiment: cytotoxicity, percent of viable cells; assay type: cell-based, murine; settings: various concentrations (FIG. 4)
[8] = test system: Twenty-six syngeneic cells lines; experiment: viability of syngeneic cell lines; assay type: cell-based; settings: 10 μM
[9] = plasma exposure (PK); assay type: in vivo; settings: FIG. 13
Experimental: 1) For pharmacokinetics (PK): 2 hrs after the first treatment, satellite time point (Day 11) and after the final time point (Day 14) 100 μl blood was collected from the I-1 treatment groups (3 mice/group), then centrifuged to get about 50 μl plasma for PK analysis.

[10] = tolerability and exposure relative to NOAEL

HDAC1, sequence (Q13547 whole entry, species assumed): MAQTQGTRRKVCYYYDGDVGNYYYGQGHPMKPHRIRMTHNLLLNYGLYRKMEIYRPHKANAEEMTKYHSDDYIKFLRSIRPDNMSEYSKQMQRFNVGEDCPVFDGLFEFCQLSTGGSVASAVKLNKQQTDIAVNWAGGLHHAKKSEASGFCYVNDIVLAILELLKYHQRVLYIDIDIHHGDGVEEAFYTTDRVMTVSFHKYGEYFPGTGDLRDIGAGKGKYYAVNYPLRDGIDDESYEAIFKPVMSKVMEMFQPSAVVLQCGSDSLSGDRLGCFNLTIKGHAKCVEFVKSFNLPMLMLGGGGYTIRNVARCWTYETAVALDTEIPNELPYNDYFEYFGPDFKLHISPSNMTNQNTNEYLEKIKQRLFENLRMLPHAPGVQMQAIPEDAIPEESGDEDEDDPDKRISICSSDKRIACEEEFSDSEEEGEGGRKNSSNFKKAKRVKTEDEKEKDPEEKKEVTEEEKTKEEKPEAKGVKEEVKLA
HDAC2, sequence (Q92769 whole entry, species assumed): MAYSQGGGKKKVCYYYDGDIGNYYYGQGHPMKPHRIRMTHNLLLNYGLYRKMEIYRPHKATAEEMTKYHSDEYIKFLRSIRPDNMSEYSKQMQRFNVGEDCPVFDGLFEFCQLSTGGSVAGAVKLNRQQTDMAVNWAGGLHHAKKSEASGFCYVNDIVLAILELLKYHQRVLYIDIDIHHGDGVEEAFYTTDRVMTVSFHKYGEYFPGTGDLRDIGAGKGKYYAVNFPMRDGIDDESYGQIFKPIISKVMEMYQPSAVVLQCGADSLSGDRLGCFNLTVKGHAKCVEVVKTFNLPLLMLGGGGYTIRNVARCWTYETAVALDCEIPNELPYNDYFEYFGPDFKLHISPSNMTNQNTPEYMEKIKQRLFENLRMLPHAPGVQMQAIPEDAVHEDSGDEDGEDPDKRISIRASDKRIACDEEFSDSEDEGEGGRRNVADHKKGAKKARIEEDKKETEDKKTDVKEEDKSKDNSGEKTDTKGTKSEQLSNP
HDAC3, sequence (O15379 whole entry, species assumed): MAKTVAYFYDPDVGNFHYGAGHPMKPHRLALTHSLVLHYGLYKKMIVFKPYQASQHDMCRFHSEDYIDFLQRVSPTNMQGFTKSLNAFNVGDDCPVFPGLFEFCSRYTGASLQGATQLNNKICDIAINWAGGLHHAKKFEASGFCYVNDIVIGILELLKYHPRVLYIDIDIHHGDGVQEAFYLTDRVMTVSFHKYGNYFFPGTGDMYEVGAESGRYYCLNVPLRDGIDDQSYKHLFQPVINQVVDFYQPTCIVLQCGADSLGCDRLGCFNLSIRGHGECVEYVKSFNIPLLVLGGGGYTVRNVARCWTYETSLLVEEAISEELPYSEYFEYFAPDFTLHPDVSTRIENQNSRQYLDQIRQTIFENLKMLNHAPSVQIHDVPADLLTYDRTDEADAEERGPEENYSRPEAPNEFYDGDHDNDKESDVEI
HDAC3, sequence (Q9Y618 395-489 partner, species assumed): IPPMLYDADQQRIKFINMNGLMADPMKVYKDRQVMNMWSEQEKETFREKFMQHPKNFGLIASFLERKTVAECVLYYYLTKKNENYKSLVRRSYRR

Row | SMILES | MHC class II protein levels (geometric mean MFI) ([1]; various concentrations (FIGS. 14 and 15)) | IC50 [2] | IC50 [3] | IC50 [4] | increase in MHC Class II expression [5] | fold more cells positive for MHC class II (IA-IE) ([1]; 120 nM I-1) | fold more cells positive for MHC class II (IA-IE) ([1]; 3 μM I-1) | fold more cells positive for MHC class II (IA-IE) ([6]; 1 μM I-1) | fold more cells positive for MHC class II (IA-IE) ([6]; 3 μM I-1) | cytotoxicity (percent of viable cells) [7] | impact on viability [8] | plasma exposure [9] | tolerability ([10]; 25 and 50 mg/kg, orally, BID) | tolerated exposures relative to tolerated dose of a clinical HDAC 1,2,3 inhibitor ([10]; FIG. 13) | levels showing efficacy relative to NOAEL (no adverse effect level) ([10]; rat NOAEL, FIG. 13)
1 | Nc1cc(F)ccc1NC(=O)/C=C/c1cnn(C/C=C/c2ccccc2)c1 [RGFP966, reference compound] | capable of increasing MHC class II protein levels | – | – | – | – | – | – | – | – | – | – | – | – | – | –
2 | CC(=O)Nc1ccc(C(=O)Nc2ccc(F)cc2N)cc1 [Compound I-1] | – | 2190 nM | 1510 nM | 61 nM | 20-100% | about 4 × | about 13 × | about 2 × | about 6 × | generally not cytotoxic | minimal impact on viability | above K, and below NOAEL | well tolerated | greater than 4 × | below rat NOAEL
